Test results from PubChem BioAssay AID328 (DTP/NCI, 2004).
Values joined by “and” are separate entries in the source; they are usually repeats but may differ in a detail not shown here. Equal values may be shown once. Toxic doses and inconclusive results are not listed.

System: BDF1 mice, P388 leukemia ip, median survival T/C
Experiment: NCI In Vivo Anticancer Drug Screen. Data for tumor model P388 Leukemia (intraperitoneal) in B6D2F1 (BDF1) mice
Conditions: endpoint: median survival time, higher = longer survival
Outline: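 Survival ratio, drug arm over vehicle arm, in mice with a transplanted tumour.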

[1] = dose: 100.0 mg/kg/injection, schedule: Q04DX003 (ip), vehicle: Klucel (hydroxypropylcellulose) (HPC)
[2] = dose: 200.0 mg/kg/injection, schedule: Q04DX003 (ip), vehicle: Klucel (hydroxypropylcellulose) (HPC)
[3] = dose: 400.0 mg/kg/injection, schedule: Q01DX009 (ip), vehicle: Klucel (hydroxypropylcellulose) (HPC)
[4] = dose: 400.0 mg/kg/injection, schedule: Q04DX003 (ip), vehicle: Klucel (hydroxypropylcellulose) (HPC)

N=[N+]=CC(=O)CCC(NC(=O)C(CCC(=O)C=[N+]=N)NC(=O)CCC(N)C(=O)O)C(=O)O (stereo not given)
T/C (dose: 0.1 mg/kg/injection, schedule: Q01DX009 (ip), vehicle: Klucel (hydroxypropylcellulose) (HPC)): 88 % of control | T/C (dose: 0.2 mg/kg/injection, schedule: Q01DX009 (ip), vehicle: Klucel (hydroxypropylcellulose) (HPC)): 92 % of control | T/C (dose: 0.2 mg/kg/injection, schedule: Q01DX009 (ip), vehicle: water): 163 % of control | T/C (dose: 0.2 mg/kg/injection, schedule: Q01DX010 (ip), vehicle: other): 170 % of control | T/C (dose: 0.3 mg/kg/injection, schedule: Q01DX009 (ip), vehicle: water): 109 % of control | T/C (dose: 0.4 mg/kg/injection, schedule: Q01DX009 (ip), vehicle: Klucel (hydroxypropylcellulose) (HPC)): 94 % of control | T/C (dose: 0.4 mg/kg/injection, schedule: Q01DX009 (ip), vehicle: water): 150 % of control | T/C (dose: 0.4 mg/kg/injection, schedule: Q01DX010 (ip), vehicle: other): 210 % of control | T/C (dose: 0.4 mg/kg/injection, schedule: Q01DX010 (ip), vehicle: water): 172 % of control | T/C (dose: 0.5 mg/kg/injection, schedule: Q01DX009 (ip), vehicle: water): 86 % of control | T/C (dose: 0.6 mg/kg/injection, schedule: Q01DX009 (ip), vehicle: water): 90 % of control | T/C (dose: 0.6 mg/kg/injection, schedule: Q01DX010 (ip), vehicle: other): 120 % of control | T/C (dose: 0.6 mg/kg/injection, schedule: Q01DX010 (ip), vehicle: water): 109 % of control and 110 % of control | T/C (dose: 0.8 mg/kg/injection, schedule: Q01DX009 (ip), vehicle: Klucel (hydroxypropylcellulose) (HPC)): 102 % of control | T/C (dose: 0.8 mg/kg/injection, schedule: Q01DX010 (ip), vehicle: other): 110 % of control | T/C (dose: 0.8 mg/kg/injection, schedule: Q01DX010 (ip), vehicle: water): 100 % of control | T/C (dose: 1.0 mg/kg/injection, schedule: Q01DX010 (ip), vehicle: water): 90 % of control | T/C (dose: 1.6 mg/kg/injection, schedule: Q01DX009 (ip), vehicle: Klucel (hydroxypropylcellulose) (HPC)): 97 % of control | T/C (dose: 2.5 mg/kg/injection, schedule: Q02DX005 (oral), vehicle: other): 163 % of control | T/C (dose: 5.0 mg/kg/injection, schedule: Q02DX005 (oral), vehicle: other): 159 % of control | T/C (dose: 7.5 mg/kg/injection, schedule: Q04DX003 (ip), vehicle: water): 154 % of control | T/C (dose: 10.0 mg/kg/injection, schedule: Q02DX005 (oral), vehicle: other): 177 % of control | T/C (dose: 12.5 mg/kg/injection, schedule: Q04DX003 (oral), vehicle: water): 172 % of control | T/C (dose: 15.0 mg/kg/injection, schedule: Q02DX005 (oral), vehicle: other): 209 % of control | T/C (dose: 15.0 mg/kg/injection, schedule: Q04DX003 (ip), vehicle: water): 200 % of control | T/C (dose: 20.0 mg/kg/injection, schedule: Q02DX005 (oral), vehicle: other): 195 % of control | T/C (dose: 25.0 mg/kg/injection, schedule: Q04DX003 (oral), vehicle: water): 200 % of control | T/C (dose: 30.0 mg/kg/injection, schedule: Q04DX003 (ip), vehicle: water): 218 % of control | T/C (dose: 50.0 mg/kg/injection, schedule: Q04DX003 (oral), vehicle: water): 222 % of control | T/C (dose: 100.0 mg/kg/injection, schedule: Q04DX003 (oral), vehicle: water): 104 % of control

BrCCCC[P+](c1ccccc1)(c1ccccc1)c1ccccc1
T/C (dose: 6.25 mg/kg/injection, schedule: Q01DX010 (ip), vehicle: saline): 113 % of control | T/C (dose: 12.5 mg/kg/injection, schedule: Q01DX010 (ip), vehicle: saline): 118 % of control

CCC1(O)CC2CN(CCc3c([nH]c4ccccc34)C(C(=O)OC)(c3cc4c(cc3OC)N(C)C3C(O)(C(=O)NCCSSCCNC(=O)C5(O)C(O)C6(CC)C=CCN7CCC8(c9cc(C%10(C(=O)OC)CC%11CN(CCc%12c%10[nH]c%10ccccc%12%10)CC(O)(CC)C%11)c(OC)cc9N(C)C58)C76)C(O)C5(CC)C=CCN6CCC43C65)C2)C1 (stereo not given)
T/C (dose: 250.0 micrograms/kg/injection, schedule: Q04DX003 (ip), vehicle: saline): 179 % of control | T/C (dose: 432.0 micrograms/kg/injection, schedule: Q04DX003 (ip), vehicle: saline): 162 % of control | T/C (dose: 500.0 micrograms/kg/injection, schedule: Q04DX003 (ip), vehicle: saline): 185 % of control | T/C (dose: 648.0 micrograms/kg/injection, schedule: Q04DX003 (ip), vehicle: saline): 268 % of control | T/C (dose: 720.0 micrograms/kg/injection, schedule: Q04DX003 (ip), vehicle: saline): 164 % of control | T/C (dose: 1000.0 micrograms/kg/injection, schedule: Q04DX003 (ip), vehicle: saline): 224 % of control | T/C (dose: 1080.0 micrograms/kg/injection, schedule: Q04DX003 (ip), vehicle: saline): 244 % of control | T/C (dose: 1200.0 micrograms/kg/injection, schedule: Q04DX003 (ip), vehicle: saline): 171 % of control | T/C (dose: 1800.0 micrograms/kg/injection, schedule: Q04DX003 (ip), vehicle: saline): 155 % of control | T/C (dose: 2000.0 micrograms/kg/injection, schedule: Q04DX003 (ip), vehicle: saline): 221 % of control

CSc1nnc(/C=C/c2ccc3c(c2)OCO3)c(=O)n1N
T/C (dose: 100.0 mg/kg/injection, schedule: Q04DX002 (ip), vehicle: saline with Tween-80): 106 % of control | T/C (dose: 200.0 mg/kg/injection, schedule: Q04DX002 (ip), vehicle: saline with Tween-80): 106 % of control

CCCCCCCCCCCCCCCCCCOc1ccccn1
T/C (dose: 3.12 mg/kg/injection, schedule: Q01DX009 (ip), vehicle: Klucel (hydroxypropylcellulose) (HPC)): 100 % of control | T/C (dose: 6.25 mg/kg/injection, schedule: Q01DX009 (ip), vehicle: Klucel (hydroxypropylcellulose) (HPC)): 104 % of control | T/C (dose: 12.5 mg/kg/injection, schedule: Q01DX009 (ip), vehicle: Klucel (hydroxypropylcellulose) (HPC)): 104 % of control | T/C [1]: 95 % of control | T/C [2]: 100 % of control | T/C [3]: 89 % of control | T/C [4]: 95 % of control

COc1cc2c(cc1OC)C(OC)N(C)c1c-2ccc2cc(OC)c(OC)cc12 (stereo not given)
T/C (dose: 100.0 mg/kg/injection, schedule: Q04DX003 (ip), vehicle: water): 161 % of control | T/C (dose: 200.0 mg/kg/injection, schedule: Q04DX003 (ip), vehicle: water): 161 % of control | T/C (dose: 300.0 mg/kg/injection, schedule: Q04DX003 (ip), vehicle: water): 166 % of control | T/C (dose: 400.0 mg/kg/injection, schedule: Q04DX003 (ip), vehicle: water): 102 % of control

Cc1sc([N+](=O)[O-])cc1[N+](=O)[O-]
T/C (dose: 25.0 mg/kg/injection, schedule: Q04DX003 (ip), vehicle: Klucel (hydroxypropylcellulose) (HPC)): 91 % of control | T/C (dose: 50.0 mg/kg/injection, schedule: Q04DX003 (ip), vehicle: Klucel (hydroxypropylcellulose) (HPC)): 95 % of control | T/C [1]: 91 % of control

CC/C(=C(\CC)c1ccc(OC)cc1)c1ccc(O)cc1
T/C (dose: 100.0 mg/kg/injection, schedule: Q01DX009 (ip), vehicle: saline sonified): 105 % of control | T/C (dose: 100.0 mg/kg/injection, schedule: Q04DX003 (ip), vehicle: saline with Tween-80): 109 % of control | T/C (dose: 200.0 mg/kg/injection, schedule: Q01DX009 (ip), vehicle: saline sonified): 110 % of control | T/C (dose: 200.0 mg/kg/injection, schedule: Q04DX003 (ip), vehicle: saline with Tween-80): 104 % of control | T/C (dose: 400.0 mg/kg/injection, schedule: Q01DX009 (ip), vehicle: saline sonified): 115 % of control | T/C (dose: 400.0 mg/kg/injection, schedule: Q04DX003 (ip), vehicle: saline with Tween-80): 95 % of control

CCNc1nc2ncnc(NCC)c2[nH]1
T/C (dose: 3.13 mg/kg/injection, schedule: Q01DX009 (ip), vehicle: saline with Tween-80): 94 % of control | T/C (dose: 6.25 mg/kg/injection, schedule: Q01DX009 (ip), vehicle: saline with Tween-80): 103 % of control | T/C (dose: 12.5 mg/kg/injection, schedule: Q01DX009 (ip), vehicle: saline with Tween-80): 100 % of control | T/C (dose: 25.0 mg/kg/injection, schedule: Q01DX009 (ip), vehicle: saline with Tween-80): 101 % of control

CN(C)CCCNc1nc(NCCCN(C)C)c2nc(-c3ccccc3)c(-c3ccccc3)nc2n1
T/C (dose: 50.0 mg/kg/injection, schedule: Q01DX005 (ip), vehicle: saline with Tween-80): 104 % of control

CCOC1C=CC(OC(C)=O)C(COC(C)=O)O1 (stereo not given)
T/C (dose: 100.0 mg/kg/injection, schedule: Q01DX009 (ip), vehicle: Klucel (hydroxypropylcellulose) (HPC)): 90 % of control | T/C [1]: 100 % of control | T/C (dose: 200.0 mg/kg/injection, schedule: Q01DX009 (ip), vehicle: Klucel (hydroxypropylcellulose) (HPC)): 86 % of control | T/C [2]: 104 % of control | T/C [3]: 100 % of control | T/C [4]: 100 % of control
